“Also recorded” adds a separate entry of the source.
Legend:
[1] = target: T1, CB1 (h) (Homo sapiens, UniProt P21554); assay: biochemical; format: binding; conditions: 10 µM
T1 construct: CEREP (contract assay)

[2] = system: BB; assay: CEREP panel; format: binding; conditions: 10 µM
[3] = target: T2, NTS1 (NT1) (h) (Homo sapiens, UniProt P30989); assay: CEREP panel; format: binding; conditions: 10 µM
T2 construct: CEREP (contract assay)

[4] = target: T3, mCB2R (Mus musculus, UniProt P47936); assay: PathHunter β-arrestin recruitment assay; format: cell-based
T3 sequence (P47936 whole entry): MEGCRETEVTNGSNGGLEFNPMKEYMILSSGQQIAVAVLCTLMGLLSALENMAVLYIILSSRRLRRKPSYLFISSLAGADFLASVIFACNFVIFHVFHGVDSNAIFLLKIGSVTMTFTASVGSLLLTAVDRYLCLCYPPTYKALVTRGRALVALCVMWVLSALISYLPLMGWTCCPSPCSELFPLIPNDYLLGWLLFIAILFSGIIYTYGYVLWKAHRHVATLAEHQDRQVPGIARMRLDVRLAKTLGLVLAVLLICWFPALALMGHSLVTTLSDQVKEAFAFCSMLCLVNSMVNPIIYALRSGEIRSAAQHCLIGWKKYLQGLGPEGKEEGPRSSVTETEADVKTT

[5] = target: T4, BZD (peripheral) (Rattus norvegicus, UniProt P16257); assay: CEREP panel; format: binding; conditions: 10 µM
T4 construct: CEREP
T4 sequence (P16257 whole entry): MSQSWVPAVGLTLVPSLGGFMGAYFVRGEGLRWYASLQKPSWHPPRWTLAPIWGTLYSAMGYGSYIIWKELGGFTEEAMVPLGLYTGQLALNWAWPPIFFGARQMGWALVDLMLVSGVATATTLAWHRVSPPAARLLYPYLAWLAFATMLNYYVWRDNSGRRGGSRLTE

[6] = target: T5, MC4 (h) (Homo sapiens, UniProt P32245); assay: CEREP panel; format: binding; conditions: 10 µM
T5 construct: CEREP (contract assay)
T5 sequence (P32245 whole entry): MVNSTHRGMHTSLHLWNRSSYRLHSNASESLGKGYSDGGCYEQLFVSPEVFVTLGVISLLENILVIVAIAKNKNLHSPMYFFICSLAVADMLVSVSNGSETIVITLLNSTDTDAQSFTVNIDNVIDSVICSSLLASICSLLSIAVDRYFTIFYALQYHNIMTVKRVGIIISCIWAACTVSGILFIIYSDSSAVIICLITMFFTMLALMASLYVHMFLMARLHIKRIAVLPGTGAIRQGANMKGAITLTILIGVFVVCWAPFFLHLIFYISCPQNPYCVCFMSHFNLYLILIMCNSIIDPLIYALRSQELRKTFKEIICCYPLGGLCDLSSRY

[7] = target: T3, mCB2R; assay: [35S]GTPγS assay; format: biochemical; set-up: from tissue; host or cells: spleen of male C57BL/6J mice
[8] = target: human P-gp (Homo sapiens, UniProt P08183); conditions: efflux ratio
Sequence of human P-gp (P08183 whole entry): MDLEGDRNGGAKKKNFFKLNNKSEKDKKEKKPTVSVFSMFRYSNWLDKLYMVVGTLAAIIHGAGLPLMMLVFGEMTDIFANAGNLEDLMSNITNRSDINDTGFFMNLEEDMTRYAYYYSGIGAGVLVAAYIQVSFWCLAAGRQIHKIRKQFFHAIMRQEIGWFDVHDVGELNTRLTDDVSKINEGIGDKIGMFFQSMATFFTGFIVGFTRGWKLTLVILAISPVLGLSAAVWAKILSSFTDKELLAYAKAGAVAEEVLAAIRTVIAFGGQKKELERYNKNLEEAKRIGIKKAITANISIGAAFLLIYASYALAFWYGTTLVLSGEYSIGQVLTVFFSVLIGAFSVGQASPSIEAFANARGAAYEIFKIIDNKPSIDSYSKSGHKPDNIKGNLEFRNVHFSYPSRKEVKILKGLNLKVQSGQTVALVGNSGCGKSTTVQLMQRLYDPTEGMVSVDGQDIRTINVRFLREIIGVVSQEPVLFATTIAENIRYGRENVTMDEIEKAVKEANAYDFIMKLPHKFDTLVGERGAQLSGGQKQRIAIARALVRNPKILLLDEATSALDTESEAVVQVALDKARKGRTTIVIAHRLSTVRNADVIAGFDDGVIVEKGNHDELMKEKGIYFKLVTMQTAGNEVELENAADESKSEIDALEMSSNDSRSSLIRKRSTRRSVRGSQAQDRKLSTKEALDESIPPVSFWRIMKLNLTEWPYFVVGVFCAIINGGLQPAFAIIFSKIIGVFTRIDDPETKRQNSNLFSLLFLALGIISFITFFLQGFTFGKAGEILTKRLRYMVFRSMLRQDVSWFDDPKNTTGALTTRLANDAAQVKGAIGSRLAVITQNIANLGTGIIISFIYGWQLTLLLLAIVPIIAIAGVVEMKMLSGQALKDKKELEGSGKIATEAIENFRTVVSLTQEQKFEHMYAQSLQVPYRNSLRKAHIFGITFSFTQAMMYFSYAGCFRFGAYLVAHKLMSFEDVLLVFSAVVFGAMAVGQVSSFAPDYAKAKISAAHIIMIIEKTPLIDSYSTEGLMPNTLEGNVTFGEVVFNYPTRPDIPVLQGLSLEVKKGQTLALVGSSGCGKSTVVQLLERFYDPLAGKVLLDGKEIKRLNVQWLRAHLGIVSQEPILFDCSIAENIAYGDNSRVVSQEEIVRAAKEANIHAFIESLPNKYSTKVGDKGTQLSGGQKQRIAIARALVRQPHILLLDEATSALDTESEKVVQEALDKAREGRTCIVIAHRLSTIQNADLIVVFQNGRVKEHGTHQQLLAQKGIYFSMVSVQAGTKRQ

[9] = system: C57BL6/J mice; assay: Triad assay: hypothermia; format: in vivo, mouse
[10] = target: T6, B2 (h) (Homo sapiens, UniProt P30411); assay: CEREP panel; format: binding; conditions: 10 µM
T6 construct: CEREP
T6 sequence (P30411 1-391): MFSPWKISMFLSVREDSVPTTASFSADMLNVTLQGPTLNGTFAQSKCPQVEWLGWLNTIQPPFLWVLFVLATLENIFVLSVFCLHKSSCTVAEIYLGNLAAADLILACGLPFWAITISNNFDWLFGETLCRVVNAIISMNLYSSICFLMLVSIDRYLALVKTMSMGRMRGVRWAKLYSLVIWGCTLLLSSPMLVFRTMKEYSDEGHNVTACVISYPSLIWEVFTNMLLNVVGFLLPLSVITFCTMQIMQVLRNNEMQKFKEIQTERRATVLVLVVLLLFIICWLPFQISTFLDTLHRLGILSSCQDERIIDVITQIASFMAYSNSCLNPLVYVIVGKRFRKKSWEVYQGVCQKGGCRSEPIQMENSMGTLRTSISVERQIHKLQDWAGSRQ

[11] = target: T7, A2A (h) (Homo sapiens, UniProt P29274); assay: CEREP panel; format: binding; conditions: 10 µM
T7 construct: CEREP
T7 sequence (P29274 whole entry): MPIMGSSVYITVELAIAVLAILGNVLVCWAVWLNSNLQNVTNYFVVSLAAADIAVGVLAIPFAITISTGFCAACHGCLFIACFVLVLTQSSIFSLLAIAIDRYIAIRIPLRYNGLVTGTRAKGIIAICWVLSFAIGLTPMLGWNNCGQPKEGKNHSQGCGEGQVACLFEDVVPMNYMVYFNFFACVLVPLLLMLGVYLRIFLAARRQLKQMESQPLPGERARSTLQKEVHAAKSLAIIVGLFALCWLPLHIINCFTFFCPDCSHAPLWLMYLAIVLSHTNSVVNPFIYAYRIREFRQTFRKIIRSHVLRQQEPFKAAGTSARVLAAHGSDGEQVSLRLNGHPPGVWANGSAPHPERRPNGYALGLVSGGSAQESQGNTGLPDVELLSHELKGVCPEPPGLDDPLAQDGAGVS

[12] = target: T8, PAC1 (PACAP) (h) (Homo sapiens, UniProt P41586); assay: CEREP panel; format: binding; conditions: 10 µM
T8 construct: CEREP (contract assay)
T8 sequence (P41586 21-468): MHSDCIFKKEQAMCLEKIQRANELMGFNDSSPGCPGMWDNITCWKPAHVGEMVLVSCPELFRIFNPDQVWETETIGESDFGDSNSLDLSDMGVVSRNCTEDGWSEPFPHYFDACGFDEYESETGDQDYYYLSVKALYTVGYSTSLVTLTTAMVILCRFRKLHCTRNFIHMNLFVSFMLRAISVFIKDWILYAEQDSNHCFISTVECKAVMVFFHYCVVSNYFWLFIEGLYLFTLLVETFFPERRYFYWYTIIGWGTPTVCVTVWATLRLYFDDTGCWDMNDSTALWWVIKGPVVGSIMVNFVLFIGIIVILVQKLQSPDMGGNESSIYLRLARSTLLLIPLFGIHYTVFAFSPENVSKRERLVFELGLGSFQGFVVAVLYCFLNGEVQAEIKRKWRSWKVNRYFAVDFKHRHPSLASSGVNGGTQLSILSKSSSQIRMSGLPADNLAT

[13] = system: Ca2+ channel (verapamil site); assay: CEREP panel; format: binding; conditions: 10 µM
[14] = system: PDGF; assay: CEREP panel; format: binding; conditions: 10 µM
[15] = target: T9, AT2 (h) (Homo sapiens, UniProt P50052); assay: CEREP panel; format: binding; conditions: 10 µM
T9 construct: CEREP
T9 sequence (P50052 1-363): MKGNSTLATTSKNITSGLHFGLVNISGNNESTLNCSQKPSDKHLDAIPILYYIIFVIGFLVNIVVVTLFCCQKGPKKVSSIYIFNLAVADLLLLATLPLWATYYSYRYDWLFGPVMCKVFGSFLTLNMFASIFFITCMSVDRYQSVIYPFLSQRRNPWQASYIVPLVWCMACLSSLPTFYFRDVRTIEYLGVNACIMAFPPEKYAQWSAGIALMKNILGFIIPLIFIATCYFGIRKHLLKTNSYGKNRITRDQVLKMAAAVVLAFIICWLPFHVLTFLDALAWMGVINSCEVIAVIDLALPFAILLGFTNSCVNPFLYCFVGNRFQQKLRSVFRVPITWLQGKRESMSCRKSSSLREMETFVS

[16] = target: T3, mCB2R; assay: Operational analysis of biased signalling
[17] = target: T10, beta 2 (h) (Homo sapiens, UniProt P07550); assay: CEREP panel; format: binding; conditions: 10 µM
T10 construct: CEREP
T10 sequence (P07550 whole entry): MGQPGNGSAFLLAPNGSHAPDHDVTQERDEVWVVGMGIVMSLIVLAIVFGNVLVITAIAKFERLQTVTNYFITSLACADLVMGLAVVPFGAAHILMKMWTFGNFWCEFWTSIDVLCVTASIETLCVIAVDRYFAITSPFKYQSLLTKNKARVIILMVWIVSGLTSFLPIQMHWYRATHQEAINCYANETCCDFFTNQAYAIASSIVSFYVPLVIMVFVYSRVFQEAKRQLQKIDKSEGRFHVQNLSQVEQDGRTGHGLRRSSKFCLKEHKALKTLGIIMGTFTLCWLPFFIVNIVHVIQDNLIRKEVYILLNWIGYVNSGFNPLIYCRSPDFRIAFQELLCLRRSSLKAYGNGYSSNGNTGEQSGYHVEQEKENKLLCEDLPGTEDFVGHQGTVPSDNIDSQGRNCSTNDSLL

[18] = system: P2Y; assay: CEREP panel; format: binding; conditions: 10 µM

T2 sequence (P30989 whole entry): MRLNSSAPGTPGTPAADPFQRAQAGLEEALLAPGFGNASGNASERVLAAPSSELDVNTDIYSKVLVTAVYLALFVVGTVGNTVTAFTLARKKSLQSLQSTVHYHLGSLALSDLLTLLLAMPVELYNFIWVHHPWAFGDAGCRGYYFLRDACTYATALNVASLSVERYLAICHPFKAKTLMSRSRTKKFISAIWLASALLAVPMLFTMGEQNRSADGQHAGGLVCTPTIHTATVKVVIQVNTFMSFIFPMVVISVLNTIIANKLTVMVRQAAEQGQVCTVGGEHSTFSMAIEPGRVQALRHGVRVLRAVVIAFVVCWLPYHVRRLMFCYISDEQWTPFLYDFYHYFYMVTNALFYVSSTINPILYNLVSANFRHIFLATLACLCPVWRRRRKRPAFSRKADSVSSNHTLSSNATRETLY
T1 sequence (P21554 whole entry): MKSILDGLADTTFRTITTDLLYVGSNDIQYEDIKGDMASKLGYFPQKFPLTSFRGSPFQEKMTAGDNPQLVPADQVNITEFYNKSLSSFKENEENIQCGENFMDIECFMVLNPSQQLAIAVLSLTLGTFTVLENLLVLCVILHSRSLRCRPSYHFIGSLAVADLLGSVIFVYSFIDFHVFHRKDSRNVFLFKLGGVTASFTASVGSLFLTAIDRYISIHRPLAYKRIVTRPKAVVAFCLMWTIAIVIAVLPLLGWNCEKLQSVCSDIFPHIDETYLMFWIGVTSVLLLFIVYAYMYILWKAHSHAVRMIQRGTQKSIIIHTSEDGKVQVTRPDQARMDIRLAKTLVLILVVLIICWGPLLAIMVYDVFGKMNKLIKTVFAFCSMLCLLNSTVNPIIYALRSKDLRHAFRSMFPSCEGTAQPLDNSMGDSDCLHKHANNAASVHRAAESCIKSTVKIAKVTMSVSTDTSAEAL

## CCCCCCC(C)(C)c1cc(OC)c(C2=C[C@H]3CC[C@]2(CO)C3(C)C)c(OC)c1 [HU910]
[1]
  % inhibition CB1 (h): 71%
[2]
  % inhibition BB: 18%
[3]
  % inhibition NTS1 (NT1) (h): -19%
[4]
  pEC50 ± SEM β-AR recruitment mCB2R: 6.78 ± 0.16
[4]; normalized to 10 µM CP55940
  Emax ± SEM β-AR recruitment mCB2R: 66 ± 1%
[5]
  % inhibition BZD (peripheral): -11%
[6]
  % inhibition MC4 (h): 13%
[7]
  pEC50 ± SEM GTPγS mCB2R: 7.27 ± 0.08
[7]; normalized to 10 µM CP55940
  Emax ± SEM GTPγS mCB2R: 78 ± 4%
[8]
  P-gp (ER) human: 2.2
[9]; 1-100 mg kg^−1 i.p., cumulative, mice
  hypothermia, cannabimimetic effect: did not produce detectable; also recorded: lacked appreciable pharmacological effects
[9]; pretreatment (SR141716A 3 mg kg^−1, HU910 30 mg kg^−1) before HU210 1.7 mg kg^−1
  antagonism of HU210-induced hypothermia: did not significantly reduce
[10]
  % inhibition B2 (h): -39%
[11]
  % inhibition A2A (h): 50%
[12]
  % inhibition PAC1 (PACAP) (h): 0%
[13]
  % inhibition Ca2+ channel (verapamil site): 7%
[14]
  % inhibition PDGF: 10%
[15]
  % inhibition AT2 (h): 13%
[16]
  GTPγS-cAMP bias factor (BF): 23.6
  GTPγS-cAMP ΔΔlogR: 1.37 ± 0.24
  LogR GTPγS: 7.15 ± 0.07
  LogR cAMP: 8.48 ± 0.18
  LogR β-AR: 6.57 ± 0.11
  β-AR-GTPγS bias factor (BF): 0.18
  β-AR-GTPγS ΔΔlogR: -0.75 ± 0.15
  β-AR-cAMP bias factor (BF): 4.2
  β-AR-cAMP ΔΔlogR: 0.63 ± 0.26
[16]; reference CP55940
  ΔLogR GTPγS: -0.67 ± 0.08
  ΔLogR cAMP: -2.04 ± 0.23
  ΔLogR β-AR: -1.41 ± 0.12
[16]; relative effectiveness
  RE GTPγS: 0.22
  RE cAMP: 0.009
  RE β-AR: 0.04
[17]
  % inhibition beta 2 (h): -5%
[18]
  % inhibition P2Y: -7%

— publication PMC5216056 (Nature Communications, 2017)
